Target: T1, bovine rod cGMP-gated channel alpha subunit (retinal CNG channel) (Bos taurus, UniProt Q00194)
T1 sequence (Q00194 1-690): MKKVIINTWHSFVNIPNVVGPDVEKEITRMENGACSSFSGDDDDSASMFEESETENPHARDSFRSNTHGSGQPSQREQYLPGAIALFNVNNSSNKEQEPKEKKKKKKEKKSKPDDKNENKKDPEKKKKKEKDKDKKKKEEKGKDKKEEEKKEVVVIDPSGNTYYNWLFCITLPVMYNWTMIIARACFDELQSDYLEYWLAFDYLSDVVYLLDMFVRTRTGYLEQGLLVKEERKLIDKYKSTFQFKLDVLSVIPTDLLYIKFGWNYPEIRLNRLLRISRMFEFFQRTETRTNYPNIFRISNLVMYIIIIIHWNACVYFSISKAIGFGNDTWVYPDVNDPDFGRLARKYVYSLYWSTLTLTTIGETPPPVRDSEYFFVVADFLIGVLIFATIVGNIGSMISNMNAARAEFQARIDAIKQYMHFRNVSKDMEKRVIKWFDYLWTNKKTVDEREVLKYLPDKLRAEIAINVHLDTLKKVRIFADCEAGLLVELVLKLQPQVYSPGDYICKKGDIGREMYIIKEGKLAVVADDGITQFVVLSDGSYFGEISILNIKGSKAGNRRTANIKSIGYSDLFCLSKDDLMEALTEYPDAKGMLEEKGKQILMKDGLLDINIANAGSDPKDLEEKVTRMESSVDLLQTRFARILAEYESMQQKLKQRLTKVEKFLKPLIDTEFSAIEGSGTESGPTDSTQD
Format: cell-based

Question: For NCCCNCCCCNCCCN [spermine], which Kd is on record?
Answer: 510 ± 40 nM
